# Measured values taken from patent US12697315B2, “Treatment for interstitial lung disease” (United Therapeutics Corporation, priority 2020, dated 2026).
# Experiments:
# [1] = system: patients with interstitial lung disease and pulmonary hypertension; test: Occurrence of / time to clinical worsening, INCREASE; type: in vivo, human
# Experimental: The primary end point of the trial was the difference between the two groups in the change in peak 6-minute walk distance from baseline to week 16. Secondary efficacy end points were analyzed in the following hierarchical testing order: the change in NT-proBNP level from baseline to week 16, the time to clinical worsening, the change in 6-minute walk distance at peak plasma treprostinil level at week 12, and the change in 6-minute walk distance at trough treprostinil level at week 15. The time to clinical worsening was evaluated from the time of randomization until the patient's withdrawal from the trial and was defined as the time until the occurrence of any one of the following events: hospitalization for a cardiopulmonary indication, a decrease in 6-minute walk distance greater than 15% from baseline that was directly related to the disease under study at two consecutive visits and at least 24 hours apart, death from any cause, or lung transplantation.
# [2] = system: patients with interstitial lung disease and pulmonary hypertension; test: SpO2 by pulse oximetry around the 6-minute walk test, INCREASE; type: in vivo, human
# Experimental: The 6-minute walk test was performed and laboratory data were obtained at baseline and at weeks 4, 8, 12, and 16, or at the time of early discontinuation of treprostinil or placebo. Each 6-minute walk test was performed 10 to 60 minutes after the most recent dose of active drug or placebo, which is the time of peak plasma treprostinil exposure. A trough test was performed at week 15 at least 4 hours after the participant received a dose of treprostinil or placebo and at least 24 hours before the week 16 test. Pulse oximetry was performed immediately before, during, and after each 6-minute walk test. Measurement of N-terminal pro-B-type natriuretic peptide (NT-proBNP) levels and pulmonary function tests were performed at baseline and at weeks 8 and 16 (or at early discontinuation) after the patients recovered from the 6-minute walk test. The St. George's Respiratory Questionnaire (SGRQ), a quality-of-life measure, was completed at baseline and week 16 or at the time of early discontinuation.
compound,measurement,setting,value
"CCCCC[C@H](O)CC[C@@H]1[C@H]2Cc3cccc(OCC(=O)O)c3C[C@H]2C[C@H]1O [Inhaled treprostinil, treprostinil]",patients with clinical worsening,[1]; 16 weeks,22.7%
same,patients with first occurrence of clinical worsening that involved hospitalization for a cardiopulmonary indication,[1]; 16 weeks,11.0%
same,Clinical worsening: Death from any cause,"[1]; 16 weeks, N = 163",4 (2.5) no. (%)
same,Clinical worsening: Decrease in 6 minute walk distance of >15% from baseline,"[1]; 16 weeks, N = 163",13 (8.0) no. (%)
same,Clinical worsening: Hospitalization for cardiopulmonary indication,"[1]; 16 weeks, N = 163",18 (11.0) no. (%)
same,Clinical worsening: Lung transplantation,"[1]; 16 weeks, N = 163",2 (1.2) no. (%)
same,Occurrence of clinical worsening: Any event,"[1]; 16 weeks, N = 163",37 (22.7) no. (%)
same,"Occurrence of clinical worsening, hazard ratio","[1]; vs placebo, Cox proportional-hazards model, listed as inhaled treprostinil",0.61
same,"During Walk SpO2 (%), Change from Pre-walk, Median",[2]; Week 16,−17.0%
same,"During Walk SpO2 (%), Value, Median",[2]; Week 16,77.0%
same,"Post-walk SpO2 (%), Change from Pre-walk, Median",[2]; Week 16,−13.0%
same,"Post-walk SpO2 (%), Value, Median",[2]; Week 16,83.0%
same,"Pre-walk SpO2 (%), Value, Median",[2]; Week 16,95.0%
same,"During Walk SpO2 (%), Change from Pre-walk, Mean (SD)","[2]; Week 16, n 123",−17.6 (7.01) %
same,"During Walk SpO2 (%), Value, Mean (SD)","[2]; Week 16, n 123",76.8 (7.70) %
same,"Post-walk SpO2 (%), Change from Pre-walk, Mean (SD)","[2]; Week 16, n 128",−12.4 (8.05) %
same,"Post-walk SpO2 (%), Value, Mean (SD)","[2]; Week 16, n 128",82.1 (9.24) %
same,"Pre-walk SpO2 (%), Value, Mean (SD)","[2]; Week 16, n 130",94.5 (4.35) %
same,treatment-related changes in pulse oximetry,[2]; over the trial period,no significant treatment-related changes
